Measurements: patent publication US12605374B2, “Methods for drug screening and compositions useful for the inhibition of cell proliferation and/or cell survival” (The Brigham and Women's Hospital, Inc., priority 2019, dated 2026)
“Also recorded” adds a separate entry of the source.

Experiments:
embryonic zebrafish = assay: Blinded re-screen of top 10 prioritized ChemBridge compounds for developmental phenotypes in embryonic zebrafish; format: in vivo
Description: Male and female wild-type (AB) fish were housed and embryos bred for screening using standard protocols. […] 10 mM compound stocks were diluted to 2 mM using DMSO, and 1 μL of each diluted compound solution was introduced into individual wells at 5 hours post fertilization (hpf) using a manual multichannel pipettor (10 uM final concentration). The first and last column of each plate received only DMSO, serving as negative control wells.
Embryos were screened for a series of developmental phenotypes at both 24 and 48 hpf using standard light microscopy. […] Only those wells where at least two of the three embryos were dead or delayed were annotated as a hit for 24 hour death or delay/arrest, respectively.
Resulting scores for each phenotype were used to rank the over 900,000 compounds. Enrichment for compounds with high (>0.95) similarity to known therapeutics (defined using Tanimoto Coefficient of molecular fingerprints) was calculated for each of the 6 ranked lists using gene set enrichment analysis^69. The top 10 highest-ranking compounds from each of the 6 lists were screened as described above, blinded and in duplicate.

[1] = biological target: T1, recombinant human Topoisomerase I (Homo sapiens, UniProt P11387); assay: Topoisomerase I and DNA binding gel electrophoresis assay; format: biochemical
T1 construct: purchased TopoGEN, Inc. TG2005H
T1 sequence (P11387 1-765): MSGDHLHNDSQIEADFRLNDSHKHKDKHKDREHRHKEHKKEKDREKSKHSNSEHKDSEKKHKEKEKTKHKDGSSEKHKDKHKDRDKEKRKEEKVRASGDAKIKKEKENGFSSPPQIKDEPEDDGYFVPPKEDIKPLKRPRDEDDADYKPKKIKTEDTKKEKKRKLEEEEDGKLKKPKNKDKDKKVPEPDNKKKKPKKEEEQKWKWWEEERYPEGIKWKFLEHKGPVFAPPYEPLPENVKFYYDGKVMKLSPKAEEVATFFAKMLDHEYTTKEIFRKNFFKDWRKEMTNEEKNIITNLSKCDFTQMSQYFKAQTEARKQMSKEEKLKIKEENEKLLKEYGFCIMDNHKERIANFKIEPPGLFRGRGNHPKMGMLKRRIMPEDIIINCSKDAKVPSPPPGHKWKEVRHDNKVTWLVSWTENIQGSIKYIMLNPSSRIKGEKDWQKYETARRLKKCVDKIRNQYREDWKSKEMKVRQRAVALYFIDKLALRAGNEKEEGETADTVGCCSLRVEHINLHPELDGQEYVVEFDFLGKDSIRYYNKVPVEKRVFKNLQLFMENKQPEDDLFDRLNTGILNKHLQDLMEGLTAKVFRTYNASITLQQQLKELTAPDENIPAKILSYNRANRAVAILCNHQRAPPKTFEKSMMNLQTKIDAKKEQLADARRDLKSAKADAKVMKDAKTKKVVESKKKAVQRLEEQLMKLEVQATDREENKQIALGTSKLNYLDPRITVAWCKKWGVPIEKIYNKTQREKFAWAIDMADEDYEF
Description: FIG. 12: Topoisomerase I and DNA binding assay for DA5. The effect of DA5 on Topoisomerase-mediated DNA unwinding is measured through a gel electrophoresis assay (see Methods).
0.5 ug of pHOT-1 supercoiled DNA (TopoGEN, Inc. TG2030-2) was combined with 2× Topoisomerase I assay buffer (50 mM Tris-HCL (ph7.9), 1 mM EDTA, 1 mM DTT, 20% (v/v) glycerol, 50 mM NaCl), nuclease free water and either DMSO vehicle control, m-AMSA positive control (100-1000 uM; TopoGEN, Inc. […] TG2005H) was added to treatments corresponding to lanes 3-12 with 2 ul of dilution buffer (5 mM Tris-HCL (pH 7.9), 1 mM EDTA, 1 mM DTT, 50% (v/v) glycerol, 500 mM NaCl) added to control treatments lacking enzyme (lanes 2, 13 and 14). Reactions were mixed and incubated at 37° C. for 30 minutes. Reactions were terminated with the addition of 20 ul nuclease free water and 50 ul of 1-butanol (water-saturated) followed by vortex and centrifugation at 13,000 rpm for 1 minute. The lower aqueous phase was removed and added to 50 ul chloroform/isoamyl alcohol (24/1) and 50 ul of 2×STEB buffer (40% (w/v) sucrose, 100 mM Tris-HCL (pH 8), 1 mM EDTA, 0.5 mg/ml bromophenol blue) followed by mixing and centrifugation at 13,000 rpm for 1 minute. […] The gel was stained with ethidium bromide for 15 minutes followed by de-staining in distilled water for 10 minutes. Gels were exposed and images acquired using the iBrightFL1000 gel documentation system (Invitrogen).

Phospholipase C = biological target: T2, Phospholipase C (Bacillus cereus, UniProt P09598); assay: In vitro Phospholipase C activity assay (EnzChek Direct kit); format: biochemical
T2 construct: purchased Thermo Fisher
T2 sequence (P09598 39-283 limits assumed): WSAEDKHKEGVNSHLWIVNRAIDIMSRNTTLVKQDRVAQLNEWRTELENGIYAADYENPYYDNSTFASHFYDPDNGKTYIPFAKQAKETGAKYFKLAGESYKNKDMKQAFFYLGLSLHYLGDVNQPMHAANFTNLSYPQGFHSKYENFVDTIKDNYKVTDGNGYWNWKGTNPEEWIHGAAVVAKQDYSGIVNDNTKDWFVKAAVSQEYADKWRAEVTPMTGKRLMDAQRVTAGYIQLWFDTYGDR
Description: Phospholipase D, C, and A2 activity were measured in vitro using commercial kits. For Phospholipase D, the Amplex Red Phospholipase D Assay Kit (Thermo Fisher) was used with Phospholipase D (Streptomyces chromofuscus—Enzo Life Sciences) added, and FIPI (4-Fluoro-N-(2-(4-(5-fluoro-1H-indol-1-yl)piperidin-1-yl)ethyl)benzamide, 5-Fluoro-2-indolyl deschlorohalopemide) hydrochloride (Sigma) acting as a positive control. To assay Phospholipase A2 activity, we used an EnzChek Phospholipase A2 Assay kit (Thermo Fisher) with Manoalide (Santa Cruz) as a positive control. To assay Phospholipase C activity, we used an EnzChek Direct Phospholipase C Assay Kit (Thermo Fisher) with D609 (Sigma) as a positive control. Tyrosinase activity was measured using a colorimetric Tyrosinase inhibitor screening kit (BioVision) with PTU as a positive control. For each assay, solutions were prepared in 96-well black clear bottom plates and read using a FLUOstar Omega plate reader at the wavelengths recommended by the respective manufacturers, with each measurement representing the average of at least 4 plate wells.

[2] = test system: Human osteosarcoma cells (U-2 OS); assay: EdU proliferation assay in human cell line; format: cell-based; settings: osteoblastic / immortalized cells (U-2 OS), four hours after drug introduction; positive control c-Myc inhibitor 10058-F4
Description: FIG. 16 (A)-(C): Effect of DA5 in human cell culture. Proliferation of osteoblastic cells was measured following introduction of DA5.
Human osteosarcoma cells (U-2 OS) were obtained from ATCC (HTB-96) and re-suspended in McCoy's 5a medium (ATCC 30-2007) containing 10% FBS and penicillin/streptomycin. Cells were passaged at least 5 times before use in proliferation assays. To perform the proliferation assay, cells were trypsinized using standard protocols, plated at 1000 cells per well in 96-well clear-bottom black cell culture treated plates, and allowed 24 hours to attach. Compounds of interest were dissolved in DMSO and introduced at an overall DMSO concentration not exceeding 0.1% by volume. Four hours after drug introduction, cells were stained and fixed using the protocol described in the Click-iT EdU Alexa Fluor 488 Imaging kit (Thermo Fisher), with Hoescht staining used to identify total cell numbers. Each well was imaged using a Nikon Eclipse Ti Epifluorescent microscope with automated stage and counts of dividing and total cells were obtained in an automated fashion using Nikon's NIS Elements software. Percent of dividing cells reported is the result of at least 4 replicates. Controls were given the same DMSO concentration by volume as compound-treated wells.

For `CCC1(CC)CCN(C(=O)c2cc(COc3ccc4ncccc4c3)on2)C1` [ChemBridge ID 65692859, 6-([3-[(3,3-diethylpyrrolidin-1-yl)carbonyl]isoxazol-5-yl]methoxy)quinoline], the “Hit (predicted phenotype observed)” value (embryonic zebrafish; Prediction: Delay/Arrest) was “Yes”, the “Phenotype Observed” value (embryonic zebrafish; embryonic zebrafish, 10 uM introduced at 5 hpf, scored at 24 and 48 hpf, blinded, in duplicate) was “Bud stage at 24 h, dead at 48 h” and the “DNA-binding / DNA intercalation / inhibition of Topoisomerase I” value ([1]; DNA intercalation analysis, listed as DA5) was “not due to DNA-binding or inhibition of Topoisomerase (TOPO) I; also recorded: not observed”. The “effect on Topoisomerase-mediated DNA unwinding (gel electrophoresis)” value ([1]; concentrations up to 100 mM (so in the source), versus DMSO) was “no more effect on DNA cleavage than DMSO”, the “activity of phospholipase C” value (Phospholipase C) was “increased activity” and the “suppression of cell proliferation” value [2] was “greater than that seen with positive control”.
